The record followed here is patent publication US20230129258A1, “HETEROTANDEM BICYCLIC PEPTIDE COMPLEXES” (BicycleTx Limited, priority 2019, published 2023).

A word on the EC50: it is the midpoint of the concentration-response curve. A word on the Kd: it is the free concentration of one partner at which half of the binding sites on the other are occupied at equilibrium, for simple one-to-one binding.

For one data set, the system named is human PBMCs. Put plainly: Human PBMC co-culture cytokine secretion assay with EphA2-expressing tumor cells (MC38, HT-1080, HT29). The conditions noted are these: anti-CD3, 48 h, read-out: EC50 of IL-2 cytokine secretion. In kind it is cell-based.
Another data set concerns the target cyno Nectin-4. Put plainly: Multicomponent SPR: Nectin-4 binding to complex captured on biotinylated human CD137, cyno Nectin-4. Conditions: Sandwich Assay, Nectin-4 ECD, biotinylated human CD137 as capture reagent; read-out: SPR KD NHP. The text has this: To understand whether the binding of BCY11863 to Nectin-4 was altered in the context of the ternary complex, i.e. when also bound to CD137, a multicomponent SPR binding assay was developed. BCY11863 was first captured to human CD137 immobilized on the SPR chip surface and then Nectin-4 from different species were passed over the chip to determine their affinities to the captured BCY11863 (see FIG. 21C). The affinities to Nectin-4 were generally maintained in the presence of CD137 binding as shown below: […]

A short description of data set [1]: Pharmacokinetic profiles in plasma and tumor tissue of CT26 #7 tumor bearing animals. Type of data set: in vivo, BALB/c mice. Conditions: female, BALB/c, mouse, single iv 5 mg/kg. The procedure:
6-8 weeks old BALB/c female mice were inoculated in the flank with 3×10^5 syngeneic Nectin-4 overexpressing CT26 cells (CT26 #7). When tumors reached around 400 mm^3 size on average, mice were randomized to receive a single intravenous dose of vehicle or 5 mg/kg BCY11863. A cohort of mice (n=3/timepoint) were sacrificed at 0.25, 0.5, 1, 2, 4, 8 and 24 h timepoints and harvested plasma and tumor tissue were analyzed for BCY11863. For tumor BCY11863 content analysis, tumor homogenate was prepared by homogenizing tumor tissue with 10 volumes (w:v) of homogenizing solution (MeOH/15 mM PBS (1:2, v:v)). 40 μL of sample was quenched with 200 μL IS1 and the mixture was mixed by vortexing for 10 min at 800 rpm and centrifuged for 15 min at 3220 g at 4° C. The supernatant was transfer to another clean 96-well plate and centrifuged for 5 min at 3220 g at 4° C., and 10.0 μL of supernatant was then injected for LC-MS/MS analysis using an Orbitrap Q Exactive in positive ion mode to determine the concentrations of analyte. For plasma BCY11863 content analysis, blood samples were collected in K2-EDTA tubes and immediately processed to plasma by centrifugation at approximately 4° C., 3000 g. 40 μL of plasma sample was quenched with 200 μL IS1 and the mixture was mixed by vortexing for 10 min at 800 rpm and centrifuged for 15 min at 3220 g at 4° C. […]

Another data set deals with T1, human Nectin-4 (Homo sapiens, UniProt Q96NY8).
T1 sequence (Q96NY8 32-349 limits assumed): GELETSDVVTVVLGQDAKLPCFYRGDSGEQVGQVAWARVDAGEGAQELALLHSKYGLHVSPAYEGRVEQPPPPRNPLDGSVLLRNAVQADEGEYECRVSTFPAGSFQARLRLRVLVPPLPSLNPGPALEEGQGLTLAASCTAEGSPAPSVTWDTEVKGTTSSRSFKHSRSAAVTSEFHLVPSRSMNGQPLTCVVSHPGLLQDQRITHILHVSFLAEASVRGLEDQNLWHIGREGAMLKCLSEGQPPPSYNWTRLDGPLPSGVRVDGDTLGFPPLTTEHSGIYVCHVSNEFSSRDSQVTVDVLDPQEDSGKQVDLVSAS
Put plainly: SPR direct binding to biotinylated Nectin-4 extracellular domain, human. From the text:
The binding of BCY11863 to its primary target Nectin-4 and CD137 was characterized using surface plasmon resonance (SPR).

“And” between values parts separate entries of the source, which are not always exact repeats. Equal values may be shown once. Read-outs that look alike come from different tables or passages of the source. Starred links: 1 amine or outer side, 2 acyl side, 3 side chain; linkers in the order of their positions; H or OH if unused. Positions of bridges follow the written chain, without caps; N, C: chain ends. Non-standard residues stand in square brackets, D forms with d. Chains are numbered I, II in the order given. X1 = O=C(CCOCCOCCOCCN(CCOCCOCCOCCn1cc(CCC(=O)[*:2])nn1)CCOCCOCCOCCn1cc(CCC(=O)[*:3])nn1)[*:1]; TATA = O=C(CC[*:1])N1CN(C(=O)CC[*:2])CN(C(=O)CC[*:3])C1; d1Nal = N[C@H](Cc1cccc2ccccc12)C(=O)O; Hyp = O=C(O)[C@@H]1C[C@@H](O)CN1; hArg = N=C(N)NCCCC[C@H](N)C(=O)O; tBuAla = CC(C)(C)C[C@H](N)C(=O)O; Nle = CCCC[C@H](N)C(=O)O

As to “I: A[hArg]DC[Hyp]LVNPLCLEP[d1Nal]WTC-NH2 / II: Ac-C[tBuAla]PE[dK]PYCFADPY[Nle]CA-NH2 / III: Ac-C[tBuAla]PE[dK]PYCFADPY[Nle]CA-NH2 (linker I:4-I:11-I:18, II:1-II:8-II:15, III:1-III:8-III:15 via TATA; linker I:N-II:5-III:5 via X1) [BCY13272]”, the EC50 in the data set on human PBMCs (human PBMC-HT-1080 co-culture) was 0.55 ± 0.47 nM; with human PBMCs (human PBMC-MC38 co-culture), 0.79 ± 0.24 nM.
`CCCC[C@@H]1NC(=O)[C@H](Cc2ccc(O)cc2)NC(=O)[C@@H]2CCCN2C(=O)[C@H](CC(=O)O)NC(=O)[C@H](C)NC(=O)[C@H](Cc2ccccc2)NC(=O)[C@@H]2CSCCC(=O)N3CN(CN(C3)C(=O)CCSC[C@@H](C(=O)N[C@@H](C)C(N)=O)NC1=O)C(=O)CCSC[C@H](NC(C)=O)C(=O)N[C@@H](CC(C)(C)C)C(=O)N1CCC[C@H]1C(=O)N[C@@H](CCC(=O)O)C(=O)N[C@H](CCCCNC(=O)CCc1cn(CCOCCOCCOCCN(CCOCCOCCOCCC(=O)N[C@H]3CSCCC(=O)N4CN5CN(C4)C(=O)CCSC[C@H](NC(=O)[C@@H](CC(=O)O)NC(=O)[C@H](Cc4cccc6ccccc46)NC(=O)[C@@H]4CCCN4C3=O)C(=O)N[C@@H](CCSC)C(=O)N[C@@H](CCCCNC(=N)N)C(=O)N[C@@H](CC(=O)O)C(=O)N[C@@H](Cc3c[nH]c4ccccc34)C(=O)N[C@@H](CO)C(=O)N[C@@H]([C@@H](C)O)C(=O)N3CCC[C@H]3C(=O)N3C[C@H](O)C[C@H]3C(=O)N[C@@H](Cc3c[nH]c4ccccc34)C(=O)N[C@H](C(N)=O)CSCCC5=O)CCOCCOCCOCCn3cc(CCC(=O)NCCCC[C@H]4NC(=O)[C@H](CCC(=O)O)NC(=O)[C@@H]5CCCN5C(=O)[C@H](CC(C)(C)C)NC(=O)[C@@H](NC(C)=O)CSCCC(=O)N5CN6CN(C5)C(=O)CCSC[C@H](NC(=O)[C@H](Cc5ccc(O)cc5)NC(=O)[C@@H]5CCCN5C4=O)C(=O)N[C@@H](Cc4ccccc4)C(=O)N[C@@H](C)C(=O)N[C@@H](CC(=O)O)C(=O)N4CCC[C@H]4C(=O)N[C@@H](Cc4ccc(O)cc4)C(=O)N[C@@H](CCCC)C(=O)N[C@H](C(=O)N[C@@H](C)C(N)=O)CSCCC6=O)nn3)nn1)C(=O)N1CCC[C@H]1C(=O)N[C@@H](Cc1ccc(O)cc1)C(=O)N2` [BCY11863]: the Kd at cyno Nectin-4 is 28 ± 5 nM; at human Nectin-4 (KD, biotinylated ECD captured on streptavidin chip), 5 to 27 nM and 4.1 nM; at human Nectin-4 (SPR KD Human (25° C.), Direct Binding, biotinylated Nectin-4 extracellular domain, 25° C.), 5 ± 2.1 nM; at human Nectin-4 (SPR KD Human (37° C.), Direct Binding, biotinylated Nectin-4 extracellular domain, 37° C.), 5.2 ± 1.1 nM. For the same compound, the half-life in data set [1] (plasma, read-out: plasma T1/2 (converted)) is 1.65 h; in data set [1] (tumor tissue, read-out: tumor T1/2 (converted)), 13.4 h.
